The subject of this experiment is K1 cells xenograft tumors. Put plainly: Xenograft tumorigenicity assay. Type of experiment: in vivo. To be noted: K1 xenograft in nude mice. The text has this: FIG. 1A-1G. Cooperative role of BRAF V600E and TERT in the oncogenic behavior and tumor growth of cancer cells. Specific shRNA against BRAF and siRNA against TERT were used to knock down BRAF and TERT in the indicated cancer cells, respectively, followed by performance of assays of MTT of cell proliferation (FIG. 1A), transwell cell migration (FIG. 1B), cell invasion (FIG. 1C), and colony formation in soft agar (FIG. 1D) (with representative images shown in the left panel and the average colony numbers in the right panel). Western blotting analysis of TERT and phosphorylation of ERK (p-ERK) was performed for K1 cells (FIG. 1E), from which xenograft tumors were derived to test the role of TERT and BRAF V600E in tumor development and growth (FIG. 1F, FIG. 1G). […] The “Control” in FIG. 1A-1D represented the combination of scramble shRNA and Control siRNA. […] The red horizontal bar on the left of FIG. 1D represents 100 μm; colonies larger than this size were counted and colony numbers are shown on the right of the panel. […]
All animal experiments were approved and performed according to the guidelines of the Institutional Animal Care and Use Committee (IACUC) of Johns Hopkins University. […] Tumor size was measured twice a week on the skin surface of the animal using a caliper and tumor volume was calculated using the formula (width^2×length)/2 as previously described. […]

For `CCCS(=O)(=O)Nc1ccc(F)c(C(=O)c2c[nH]c3ncc(-c4ccc(Cl)cc4)cc23)c1F` [PLX4032], the tumor growth entry by setting is: (10 mg/kg PLX4032 daily by oral gavage) “inhibited tumor growth”; (PLX4032 10 mg/kg daily combined with stable TERT knockdown (shTERT)) “nearly completely abolished tumor growth”.

The values above are taken from patent US11911356B2, “Regulation of mutant TERT by BRAF V600E/map kinase pathway through FOS/GABP in human cancer” (THE JOHNS HOPKINS UNIVERSITY, priority 2017, dated 2024).
